# The kinase profiling compilation of Christmann-Franck et al. (2016)
# What was measured:
# Assay in all cases: radiometric filter-binding kinase assay
# [1] = biological target: STK11 CAB39 STRADA (human) (UniProt Q9Y376+Q7RTN6+Q15831)
# IKBKB (human) = IKBKB (human) (UniProt O14920)
# RPS6KA1 KD1 KD2 (human) = RPS6KA1 KD1 KD2 (human) (UniProt Q15418)
# INSRR (human) = INSRR (human) (UniProt P14616)
# MINK1 (human) = MINK1 (human) (UniProt Q8N4C8)
# MAPK13 (human) = MAPK13 (human) (UniProt O15264)
# PRKAA1 or PRKAA2 (rat) = settings: accession and sequence are those of the human protein
# MKNK1 (human) = MKNK1 (human) (UniProt Q9BUB5)
# PRKCZ (human) = PRKCZ (human) (UniProt Q05513)
# CHEK2 (human) = CHEK2 (human) (UniProt O96017)
# MARK4 (human) = MARK4 (human) (UniProt Q96L34)
# PHKG1 (human) = PHKG1 (human) (UniProt Q16816)
# MYLK (human) = MYLK (human) (UniProt Q15746)
# GSK3B (human) = GSK3B (human) (UniProt P49841)
# EPHB3 (human) = EPHB3 (human) (UniProt P54753)
# MKNK2 (human) = MKNK2 (human) (UniProt Q9HBH9)
# MAP3K9 (human) = MAP3K9 (human) (UniProt P80192)
# MELK (human) = MELK (human) (UniProt Q14680)
# CSK (human) = CSK (human) (UniProt P41240)
# MAPKAPK3 (human) = MAPKAPK3 (human) (UniProt Q16644)
# PRKACA (human) = PRKACA (human) (UniProt P17612)
# AURKB (human) = AURKB (human) (UniProt Q96GD4)
# MAPK1 (human) = MAPK1 (human) (UniProt P28482)
# ERBB4 (human) = ERBB4 (human) (UniProt Q15303)
# ROCK2 (rat) = settings: accession and sequence are those of the human protein
# FGFR1 (human) = FGFR1 (human) (UniProt P11362)
# SRC (human) = SRC (human) (UniProt P12931)
# CSNK2A1 (human) = CSNK2A1 (human) (UniProt P68400)
# TTK (human) = TTK (human) (UniProt P33981)
# EEF2K (human) = EEF2K (human) (UniProt O00418)
# CDK2 CCNA2 (human) = CDK2 CCNA2 (human) (UniProt P20248+P24941)
# LCK (mouse) = settings: accession and sequence are those of the human protein
# Chain of EPHB3 (human) (P54753 whole entry, looked up): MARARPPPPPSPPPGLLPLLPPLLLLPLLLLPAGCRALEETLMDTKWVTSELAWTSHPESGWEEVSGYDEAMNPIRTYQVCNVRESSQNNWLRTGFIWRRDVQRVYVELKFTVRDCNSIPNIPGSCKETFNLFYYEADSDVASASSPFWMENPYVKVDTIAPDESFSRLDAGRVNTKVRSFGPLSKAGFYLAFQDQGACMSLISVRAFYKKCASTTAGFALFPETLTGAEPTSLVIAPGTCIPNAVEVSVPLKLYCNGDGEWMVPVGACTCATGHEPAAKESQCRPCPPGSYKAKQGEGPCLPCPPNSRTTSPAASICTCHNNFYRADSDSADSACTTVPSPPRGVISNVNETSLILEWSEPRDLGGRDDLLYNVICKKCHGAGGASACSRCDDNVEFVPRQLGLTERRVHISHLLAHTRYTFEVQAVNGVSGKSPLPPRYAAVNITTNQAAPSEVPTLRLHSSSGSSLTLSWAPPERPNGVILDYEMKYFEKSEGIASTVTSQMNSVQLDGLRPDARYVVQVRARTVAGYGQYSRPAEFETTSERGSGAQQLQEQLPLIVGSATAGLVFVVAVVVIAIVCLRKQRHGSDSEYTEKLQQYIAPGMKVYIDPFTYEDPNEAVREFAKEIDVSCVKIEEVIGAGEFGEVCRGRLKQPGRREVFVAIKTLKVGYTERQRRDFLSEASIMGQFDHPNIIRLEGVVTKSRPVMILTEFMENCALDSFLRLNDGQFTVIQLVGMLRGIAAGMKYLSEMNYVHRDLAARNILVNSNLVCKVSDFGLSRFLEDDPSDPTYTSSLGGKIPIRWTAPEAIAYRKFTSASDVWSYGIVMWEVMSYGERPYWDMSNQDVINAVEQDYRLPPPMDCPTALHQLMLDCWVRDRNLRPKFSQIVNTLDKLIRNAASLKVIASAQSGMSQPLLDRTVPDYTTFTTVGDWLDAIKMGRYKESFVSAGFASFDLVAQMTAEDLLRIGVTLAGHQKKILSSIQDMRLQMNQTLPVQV
# Chain of TTK (human) (P33981 whole entry, looked up): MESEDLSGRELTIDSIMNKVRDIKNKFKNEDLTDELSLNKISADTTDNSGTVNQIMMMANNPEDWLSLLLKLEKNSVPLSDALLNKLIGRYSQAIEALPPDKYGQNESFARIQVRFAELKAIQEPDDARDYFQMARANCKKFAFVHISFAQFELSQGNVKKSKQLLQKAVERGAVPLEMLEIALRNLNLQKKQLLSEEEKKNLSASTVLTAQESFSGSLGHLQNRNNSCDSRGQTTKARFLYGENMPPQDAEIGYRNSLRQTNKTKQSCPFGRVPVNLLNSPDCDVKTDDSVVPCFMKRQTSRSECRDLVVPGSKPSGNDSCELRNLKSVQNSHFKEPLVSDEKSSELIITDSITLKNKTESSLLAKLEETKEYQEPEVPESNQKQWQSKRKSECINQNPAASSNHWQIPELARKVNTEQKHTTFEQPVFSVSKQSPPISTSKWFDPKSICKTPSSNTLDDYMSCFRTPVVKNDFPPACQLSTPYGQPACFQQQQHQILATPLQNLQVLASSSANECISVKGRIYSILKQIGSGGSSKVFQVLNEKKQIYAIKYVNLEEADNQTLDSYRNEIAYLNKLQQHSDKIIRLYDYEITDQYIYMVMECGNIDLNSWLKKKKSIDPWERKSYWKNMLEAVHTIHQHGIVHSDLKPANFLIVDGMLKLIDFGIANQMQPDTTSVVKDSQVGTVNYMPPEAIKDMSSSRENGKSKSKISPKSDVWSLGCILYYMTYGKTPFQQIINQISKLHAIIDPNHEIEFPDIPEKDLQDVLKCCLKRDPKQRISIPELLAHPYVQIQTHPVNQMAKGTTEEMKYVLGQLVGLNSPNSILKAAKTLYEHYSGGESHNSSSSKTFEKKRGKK
# Chain of MAPK1 (human) (P28482 whole entry, looked up): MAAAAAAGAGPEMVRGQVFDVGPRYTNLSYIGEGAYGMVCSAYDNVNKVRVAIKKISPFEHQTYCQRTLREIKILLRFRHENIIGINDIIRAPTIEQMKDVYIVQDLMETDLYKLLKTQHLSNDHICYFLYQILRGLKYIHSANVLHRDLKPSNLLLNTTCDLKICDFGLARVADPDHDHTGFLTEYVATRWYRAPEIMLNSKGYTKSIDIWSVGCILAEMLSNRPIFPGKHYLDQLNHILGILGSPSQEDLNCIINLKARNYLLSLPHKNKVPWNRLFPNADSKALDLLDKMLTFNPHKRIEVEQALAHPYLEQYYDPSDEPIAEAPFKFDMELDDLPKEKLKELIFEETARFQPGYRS
# Chain of MAPKAPK3 (human) (Q16644 whole entry, looked up): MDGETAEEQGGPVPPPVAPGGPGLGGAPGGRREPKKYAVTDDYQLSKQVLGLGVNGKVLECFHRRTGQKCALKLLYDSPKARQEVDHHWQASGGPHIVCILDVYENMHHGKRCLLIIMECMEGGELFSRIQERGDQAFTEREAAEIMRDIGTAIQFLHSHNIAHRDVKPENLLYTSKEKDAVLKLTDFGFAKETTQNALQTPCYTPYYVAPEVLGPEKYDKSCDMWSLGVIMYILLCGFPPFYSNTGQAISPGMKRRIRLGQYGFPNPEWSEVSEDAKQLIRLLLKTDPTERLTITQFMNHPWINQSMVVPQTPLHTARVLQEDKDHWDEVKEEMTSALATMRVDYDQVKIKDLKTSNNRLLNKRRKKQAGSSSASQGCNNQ
# Chain of MINK1 (human) (Q8N4C8 whole entry, looked up): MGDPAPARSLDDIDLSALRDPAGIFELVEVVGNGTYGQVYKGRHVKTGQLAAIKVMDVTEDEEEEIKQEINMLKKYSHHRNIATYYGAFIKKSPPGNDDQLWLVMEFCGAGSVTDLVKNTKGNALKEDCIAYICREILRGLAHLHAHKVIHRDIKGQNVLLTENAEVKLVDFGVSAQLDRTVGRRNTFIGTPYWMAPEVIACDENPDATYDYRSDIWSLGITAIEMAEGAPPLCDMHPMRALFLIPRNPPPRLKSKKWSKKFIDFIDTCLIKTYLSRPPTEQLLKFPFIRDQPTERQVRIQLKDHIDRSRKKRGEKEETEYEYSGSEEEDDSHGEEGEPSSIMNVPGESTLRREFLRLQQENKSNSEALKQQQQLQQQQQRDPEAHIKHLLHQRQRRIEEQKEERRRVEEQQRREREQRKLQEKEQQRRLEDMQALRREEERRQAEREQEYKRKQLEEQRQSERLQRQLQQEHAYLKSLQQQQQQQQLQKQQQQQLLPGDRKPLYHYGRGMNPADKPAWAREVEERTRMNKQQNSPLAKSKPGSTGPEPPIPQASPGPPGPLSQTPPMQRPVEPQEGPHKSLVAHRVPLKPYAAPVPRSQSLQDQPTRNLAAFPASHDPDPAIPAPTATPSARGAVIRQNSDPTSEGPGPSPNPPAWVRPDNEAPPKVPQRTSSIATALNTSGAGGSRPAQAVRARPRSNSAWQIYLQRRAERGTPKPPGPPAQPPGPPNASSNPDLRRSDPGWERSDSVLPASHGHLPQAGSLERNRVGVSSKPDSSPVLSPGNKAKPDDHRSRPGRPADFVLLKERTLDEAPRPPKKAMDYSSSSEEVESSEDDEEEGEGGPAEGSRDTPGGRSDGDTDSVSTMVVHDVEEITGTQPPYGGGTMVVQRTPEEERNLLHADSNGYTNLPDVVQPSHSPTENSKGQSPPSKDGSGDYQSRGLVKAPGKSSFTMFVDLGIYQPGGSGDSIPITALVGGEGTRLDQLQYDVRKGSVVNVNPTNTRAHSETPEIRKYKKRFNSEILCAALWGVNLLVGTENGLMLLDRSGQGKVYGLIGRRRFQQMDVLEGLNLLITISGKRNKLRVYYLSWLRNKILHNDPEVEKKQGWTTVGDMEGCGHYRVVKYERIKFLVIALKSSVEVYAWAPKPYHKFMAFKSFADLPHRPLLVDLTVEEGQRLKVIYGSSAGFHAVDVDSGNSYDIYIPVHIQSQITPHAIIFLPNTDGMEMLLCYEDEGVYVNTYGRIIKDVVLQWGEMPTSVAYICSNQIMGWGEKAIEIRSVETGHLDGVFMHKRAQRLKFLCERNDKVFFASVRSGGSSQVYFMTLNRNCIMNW
# Chain of AURKB (human) (Q96GD4 whole entry, looked up): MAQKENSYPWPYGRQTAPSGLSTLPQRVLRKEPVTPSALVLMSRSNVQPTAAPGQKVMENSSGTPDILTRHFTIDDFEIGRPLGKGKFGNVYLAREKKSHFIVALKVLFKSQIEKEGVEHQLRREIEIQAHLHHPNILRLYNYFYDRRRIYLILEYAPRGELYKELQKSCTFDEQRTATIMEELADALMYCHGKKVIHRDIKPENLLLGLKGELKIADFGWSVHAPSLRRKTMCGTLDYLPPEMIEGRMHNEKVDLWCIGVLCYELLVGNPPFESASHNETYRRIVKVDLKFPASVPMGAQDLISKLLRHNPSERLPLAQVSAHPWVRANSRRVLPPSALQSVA
# Chain of MAPK13 (human) (O15264 whole entry, looked up): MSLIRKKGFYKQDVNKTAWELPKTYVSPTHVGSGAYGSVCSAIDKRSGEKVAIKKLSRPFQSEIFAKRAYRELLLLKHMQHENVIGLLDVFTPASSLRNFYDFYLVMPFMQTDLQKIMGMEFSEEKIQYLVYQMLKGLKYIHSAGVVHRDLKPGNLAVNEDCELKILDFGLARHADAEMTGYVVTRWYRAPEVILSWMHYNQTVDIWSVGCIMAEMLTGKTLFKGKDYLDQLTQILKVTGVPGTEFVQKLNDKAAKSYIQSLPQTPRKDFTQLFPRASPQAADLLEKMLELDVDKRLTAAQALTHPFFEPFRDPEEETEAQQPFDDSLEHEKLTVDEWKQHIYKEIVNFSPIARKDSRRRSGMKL
# Chain of CSNK2A1 (human) (P68400 whole entry, looked up): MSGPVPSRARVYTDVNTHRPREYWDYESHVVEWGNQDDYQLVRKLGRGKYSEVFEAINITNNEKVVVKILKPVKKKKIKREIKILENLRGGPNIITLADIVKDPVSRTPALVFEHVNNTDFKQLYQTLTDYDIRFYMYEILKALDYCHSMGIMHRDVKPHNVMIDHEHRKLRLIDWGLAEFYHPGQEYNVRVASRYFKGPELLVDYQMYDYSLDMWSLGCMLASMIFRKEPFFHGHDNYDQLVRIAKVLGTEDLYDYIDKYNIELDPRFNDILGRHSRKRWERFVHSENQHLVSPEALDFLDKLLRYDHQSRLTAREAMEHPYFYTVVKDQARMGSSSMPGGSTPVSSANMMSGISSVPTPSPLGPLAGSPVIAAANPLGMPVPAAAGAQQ
compound,measurement,setting,value
CN1C(=O)[C@@H](Cc2c[nH]c3ccccc23)NC1=S,residual activity,[1]; compound 1.0 µM,111%
same,residual activity,[1]; compound 10.0 µM,110%
same,residual activity,IKBKB (human); compound 1.0 µM,95%
same,residual activity,IKBKB (human); compound 10.0 µM,96%
same,residual activity,RPS6KA1 KD1 KD2 (human); compound 1.0 µM,80%
same,residual activity,RPS6KA1 KD1 KD2 (human); compound 10.0 µM,92%
same,residual activity,INSRR (human); compound 1.0 µM,81%
same,residual activity,INSRR (human); compound 10.0 µM,87%
same,residual activity,MINK1 (human); compound 1.0 µM,103%
same,residual activity,MINK1 (human); compound 10.0 µM,99%
same,residual activity,MAPK13 (human); compound 1.0 µM,96%
same,residual activity,MAPK13 (human); compound 10.0 µM,102%
same,residual activity,PRKAA1 or PRKAA2 (rat); compound 1.0 µM,94%
same,residual activity,PRKAA1 or PRKAA2 (rat); compound 10.0 µM,102%
same,residual activity,MKNK1 (human); compound 1.0 µM,86%
same,residual activity,MKNK1 (human); compound 10.0 µM,78%
same,residual activity,PRKCZ (human); compound 1.0 µM,70%
same,residual activity,PRKCZ (human); compound 10.0 µM,83%
same,residual activity,CHEK2 (human); compound 1.0 µM,92%
same,residual activity,CHEK2 (human); compound 10.0 µM,86%
same,residual activity,MARK4 (human); compound 1.0 µM,98%
same,residual activity,MARK4 (human); compound 10.0 µM,96%
same,residual activity,PHKG1 (human); compound 1.0 µM,103%
same,residual activity,PHKG1 (human); compound 10.0 µM,97%
same,residual activity,MYLK (human); compound 1.0 µM,83%
same,residual activity,MYLK (human); compound 10.0 µM,81%
same,residual activity,GSK3B (human); compound 1.0 µM,110%
same,residual activity,GSK3B (human); compound 10.0 µM,101%
same,residual activity,EPHB3 (human); compound 1.0 µM,112%
same,residual activity,EPHB3 (human); compound 10.0 µM,104%
same,residual activity,MKNK2 (human); compound 1.0 µM,106%
same,residual activity,MKNK2 (human); compound 10.0 µM,102%
same,residual activity,MAP3K9 (human); compound 1.0 µM,100%
same,residual activity,MAP3K9 (human); compound 10.0 µM,96%
same,residual activity,MELK (human); compound 1.0 µM,88%
same,residual activity,MELK (human); compound 10.0 µM,89%
same,residual activity,CSK (human); compound 1.0 µM,98%
same,residual activity,CSK (human); compound 10.0 µM,110%
same,residual activity,MAPKAPK3 (human); compound 1.0 µM,119%
same,residual activity,MAPKAPK3 (human); compound 10.0 µM,114%
same,residual activity,PRKACA (human); compound 1.0 µM,95%
same,residual activity,PRKACA (human); compound 10.0 µM,93%
same,residual activity,AURKB (human); compound 1.0 µM,104%
same,residual activity,AURKB (human); compound 10.0 µM,106%
same,residual activity,MAPK1 (human); compound 1.0 µM,94%
same,residual activity,MAPK1 (human); compound 10.0 µM,92%
same,residual activity,ERBB4 (human); compound 1.0 µM,109%
same,residual activity,ERBB4 (human); compound 10.0 µM,104%
same,residual activity,ROCK2 (rat); compound 1.0 µM,96%
same,residual activity,ROCK2 (rat); compound 10.0 µM,97%
same,residual activity,FGFR1 (human); compound 1.0 µM,93%
same,residual activity,FGFR1 (human); compound 10.0 µM,100%
same,residual activity,SRC (human); compound 1.0 µM,98%
same,residual activity,SRC (human); compound 10.0 µM,110%
same,residual activity,CSNK2A1 (human); compound 1.0 µM,95%
same,residual activity,CSNK2A1 (human); compound 10.0 µM,87%
same,residual activity,TTK (human); compound 1.0 µM,98%
same,residual activity,TTK (human); compound 10.0 µM,106%
same,residual activity,EEF2K (human); compound 1.0 µM,83%
same,residual activity,EEF2K (human); compound 10.0 µM,75%
same,residual activity,CDK2 CCNA2 (human); compound 1.0 µM,77%
same,residual activity,CDK2 CCNA2 (human); compound 10.0 µM,93%
same,residual activity,LCK (mouse); compound 1.0 µM,116%
same,residual activity,LCK (mouse); compound 10.0 µM,111%
O=C(O)c1cc(N=Nc2ccc(S(=O)(=O)Nc3ccccn3)cc2)ccc1O,residual activity,[1]; compound 1.0 µM,124%
same,residual activity,[1]; compound 10.0 µM,117%
same,residual activity,IKBKB (human); compound 1.0 µM,107%
same,residual activity,IKBKB (human); compound 10.0 µM,89%
same,residual activity,RPS6KA1 KD1 KD2 (human); compound 1.0 µM,129%
same,residual activity,RPS6KA1 KD1 KD2 (human); compound 10.0 µM,122%
same,residual activity,INSRR (human); compound 10.0 µM,80%
same,residual activity,MINK1 (human); compound 10.0 µM,57%
same,residual activity,MAPK13 (human); compound 1.0 µM,100%
same,residual activity,MAPK13 (human); compound 10.0 µM,103%
same,residual activity,PRKAA1 or PRKAA2 (rat); compound 1.0 µM,101%
same,residual activity,MKNK1 (human); compound 1.0 µM,97%
same,residual activity,MKNK1 (human); compound 10.0 µM,79%
same,residual activity,PRKCZ (human); compound 1.0 µM,96%
same,residual activity,PRKCZ (human); compound 10.0 µM,103%
same,residual activity,CHEK2 (human); compound 1.0 µM,108%
same,residual activity,CHEK2 (human); compound 10.0 µM,103%
same,residual activity,MARK4 (human); compound 1.0 µM,98%
same,residual activity,MARK4 (human); compound 10.0 µM,89%
same,residual activity,PHKG1 (human); compound 1.0 µM,104%
same,residual activity,PHKG1 (human); compound 10.0 µM,94%
same,residual activity,MYLK (human); compound 1.0 µM,112%
same,residual activity,MYLK (human); compound 10.0 µM,99%
same,residual activity,GSK3B (human); compound 1.0 µM,101%
same,residual activity,GSK3B (human); compound 10.0 µM,93%
same,residual activity,EPHB3 (human); compound 1.0 µM,102%
same,residual activity,EPHB3 (human); compound 10.0 µM,118%
same,residual activity,MKNK2 (human); compound 1.0 µM,76%
same,residual activity,MKNK2 (human); compound 10.0 µM,99%
same,residual activity,MAP3K9 (human); compound 1.0 µM,105%
same,residual activity,MAP3K9 (human); compound 10.0 µM,89%
same,residual activity,MELK (human); compound 1.0 µM,113%
same,residual activity,MELK (human); compound 10.0 µM,101%
same,residual activity,CSK (human); compound 1.0 µM,119%
same,residual activity,CSK (human); compound 10.0 µM,119%
same,residual activity,MAPKAPK3 (human); compound 1.0 µM,116%
same,residual activity,MAPKAPK3 (human); compound 10.0 µM,85%
same,residual activity,PRKACA (human); compound 1.0 µM,111%
same,residual activity,PRKACA (human); compound 10.0 µM,114%
same,residual activity,AURKB (human); compound 1.0 µM,104%
same,residual activity,AURKB (human); compound 10.0 µM,105%
same,residual activity,MAPK1 (human); compound 1.0 µM,104%
same,residual activity,MAPK1 (human); compound 10.0 µM,97%
same,residual activity,ERBB4 (human); compound 1.0 µM,100%
same,residual activity,ERBB4 (human); compound 10.0 µM,77%
same,residual activity,ROCK2 (rat); compound 1.0 µM,93%
same,residual activity,ROCK2 (rat); compound 10.0 µM,90%
same,residual activity,FGFR1 (human); compound 1.0 µM,110%
same,residual activity,FGFR1 (human); compound 10.0 µM,115%
same,residual activity,SRC (human); compound 1.0 µM,94%
same,residual activity,SRC (human); compound 10.0 µM,83%
same,residual activity,CSNK2A1 (human); compound 1.0 µM,83%
same,residual activity,CSNK2A1 (human); compound 10.0 µM,29%
same,residual activity,TTK (human); compound 1.0 µM,98%
same,residual activity,TTK (human); compound 10.0 µM,88%
same,residual activity,EEF2K (human); compound 1.0 µM,95%
same,residual activity,EEF2K (human); compound 10.0 µM,109%
same,residual activity,CDK2 CCNA2 (human); compound 1.0 µM,93%
same,residual activity,CDK2 CCNA2 (human); compound 10.0 µM,107%
same,residual activity,LCK (mouse); compound 1.0 µM,102%
same,residual activity,LCK (mouse); compound 10.0 µM,97%
